Measured values: ChEMBL document CHEMBL1134052, “A new C-nucleoside analogue of tiazofurin: synthesis and biological evaluation of 2-beta-D-ribofuranosylimidazole-4-carboxamide (imidazofurin)” (Bioorg Med Chem Lett, 2001)

Columns and labels:
[1] = tested on: K562; assay: Ability to inhibit the growth of human myelogenous leukemia K562 cells; assay type: functional, cell-based
[2] = tested on: K562; assay: Ability to inhibit the growth of human myelogenous leukemia K562 cells at 100 uM; no growth; assay type: functional, cell-based

IC50 [1] | SMILES | Activity [2]
4.6 µM | NC(=O)c1csc([C@@H]2O[C@H](CO)[C@@H](O)[C@H]2O)c1 | –
– | NC(=O)c1c[nH]c([C@@H]2O[C@H](CO)[C@@H](O)[C@H]2O)n1 | no growth
